Tests used:
[1] = test system: HRF; experiment: Phage clone ELISA for binding to immobilized HRF
Description: Particularly, HRF was dissolved in a coating buffer (0.1 M NaHCO 3, pH 8.6) at the concentration of 20 μg/ml, which was loaded in a polystyrene microtiter plate (50 ? /well), followed by coating at 4° C. for overnight and blocking non-specific binding with BSA. The plate was washed with 0.1% Tween/TBS (TBST) 6 times. […] The plate stood at room temperature for 1 hour. TBST was added thereto, and the plate stood for 5 minutes, followed by washing. The washing was performed once after one round of panning, 5 times after 2 and 3 rounds of panning, and 10 times after 4 rounds of panning. 50 ? of glycine/HCl buffer (pH 2.2) was added thereto, which stood for 5 minutes. Then, phages were eluted, and then neutralization was induced with 8 ? of 1 M Tris-HCl (pH 9.1). The eluted phage solution was added to 20 ? of ER2537 culture medium (OD600=0.5˜1), followed by culture in a 37° C. shaking incubator (rpm=200) for 2 hours. 100 ? of SB medium was added thereto, followed by culture for overnight with shaking (250 rpm). The culture solution was centrifuged at 10,000 rpm (4° C.) for 15 minutes. 100 ? of the obtained supernatant was added with 30 ? of 5×PEG/NaCl (20% PEG(w/v), 15% NaCl (w/v)), followed by dissolving for 5 minutes. The mixture was then left in ice for 30 minutes. The mixture was centrifuged at 10,000 rpm (4° C.) for 20 minutes and the supernatant was discarded. The obtained pellet was suspended in 1 ? of 3% BSA/TBS. After performing centrifugation at 14,000 rpm for 5 minutes, the supernatant was obtained and used for panning. Affinity purification and phage replication were repeated 4 times, followed by eluting phages. Each phage clone was obtained from the proper plate of the eluted phage, followed by ELISA. Those phage clones showing a specific affinity to HRF were separated, followed by sequencing to confirm the peptide sequence. Those phage display peptides showing dominant binding to HRF were selected and listed below:
That is, each phage plaque was added to 1 ? of the ER2537 culture medium (OD600=0.5˜1) cultured in SB medium, followed by culture in a 37° C. incubator (rpm=250) for 5 hours. 100 ? of each culture solution was added to 900 ? of SB medium, followed by culture for overnight. […]
Each phage solution separated above was diluted in an equal volume of 6% BSA/PBS, and 50 ? of the diluted solution was added to each well of the plastic well plate coated with HRF or BSA (control), which stood for 2 hours. […] After adding peroxidase substrate solution thereto (100 ? /well), OD405 was measured with an ELISA reader.
HRF was diluted serially by ⅕ fold each from the concentration of 20 μg/ ? […] The phage 2 solution diluted serially by ⅕ fold each (½, 1/10, 1/50, 1/250, and 1/1250 of the stock solution) was added thereto, followed by ELISA and OD405 was measured.

[2] = test system: CIA mouse model; experiment: Treatment effect of dTBP2 in CIA mouse model; type: in vivo, DBA1/j mice
[3] = test system: HRF; experiment: HRF binding affinity of heptamer peptides by ELISA (alanine scan of p2); settings: p2 and its substituted heptamers m1-m7
Text: In order to confirm the residues involved in the HRF binding affinity of the heptamer peptide of the present invention, the amino acid sequence of p2 was substituted with alanine (A), and only m5 was substituted with lysine (K). As a result, the following sequences were established: […]

[4] = test system: atopic dermatitis mouse model; experiment: Effect of dTBP2 in atopic dermatitis mouse model (Biostir AD); type: in vivo, female NC/Nga mice
Description: Particularly, 5 week old specific pathogen free female NC/Nga mice were purchased from Orientbio Inc. (Seoul, Korea), which were adapted for 1 week. After depilating with a hair removal agent, Biostir® AD ointment (Biostir, Japan) was used to induce atopic dermatitis on the dorsal skin. That is, hair was removed from the back of the mouse, on which 150 μl of 4% SDS dissolved in PBS was applied. After 2-3 hours of natural dry, 100 mg of Biostir® AD cream was evenly applied on the back skin and the ear skin of the mouse. The cream was applied twice a week, 6 times total for 3 weeks. It was confirmed that the skin layer of the mouse became thick and keratin was formed on the back skin.
To investigate the effect of dTBP2 on atopic dermatitis in the atopic dermatitis-induced mouse, the positive control was administered with PBS, the comparative experimental group was administered with protopic ointment (Astellas Pharma Manufacturing Inc., USA), and the experimental group was treated with dTPB2. On day 0, PBS (subcutaneous injection, 25 mg/kg), protopic ointment (skin application, 100 mg/mouse) and dTBP2 (subcutaneous injection, 25 mg/kg) were respectively applied. On day 1, 100 mg of Biostir® AD cream was applied thereto. On day 2 and day 3, PBS, protopic ointment, and dTBP2 were treated thereto by the same manner as performed on day 0. On day 4, 100 mg of Biostir® AD cream was applied thereto. On day 5, PBS, protopic ointment, and dTBP2 were treated thereto by the same manner as performed on day 0.
Atopic symptoms were observed and presented as points according to the atopic index such as erythema, drying, excoriation, edema, and erosion, based on which a graph was made (FIG. 32b, 0: no symptoms, 1: weak symptoms, 2: median symptoms, 3: severe symptoms). It was confirmed on the graph that atopy was minor in the group treated with protopic ointment and dTBP2, compared with the control.
Once atopic allergy is induced, the stratum corneum and skin layer become thick and the infiltration of inflammatory cells is increased. For the histological evaluation, hematoxylin/eosin staining and toluidine blue staining were performed. The thickness of the skin and the infiltration of immune related inflammatory cells were observed under microscope. As a result, the atopic symptoms including the thick stratum corneum were improved in the groups treated with protopic ointment and dTBP2, compared with the control group treated with PBS alone (FIGS. 34a and 34b).
Lymph node assay examining the effect of an antigen or a drug by observing the changes of lymph node weight was performed to investigate inflammatory reaction induced by skin sensitizing materials.

[5] = test system: CIA (collagen-induced arthritis) mouse model; experiment: Preventive effect of dTBP2 in CIA (collagen-induced arthritis) mouse model; type: in vivo, male DBA1/j mice; settings: for joint thickness: preventive
[6] = dTBP2 25 mg/kg s.c., protopic ointment 100 mg/mouse, vs PBS

“WYVYPSM (IgE-dependent histamine-releasing factor binding peptide2) [dTBP2, ID; NO: 24]” was tested, and the “binding force to serially diluted HRF (ELISA, OD405)” value ([1]; HRF diluted until 0.4, 0.08, 0.016, and 0.032 μg/ml, phage solution serially diluted) was “maintained its binding force to HRF”, the “binding of phage clone to HRF (ELISA, OD405)” value ([1]; wells coated with HRF or BSA (control)) was “specifically bind to HRF” and the joint thickness ([2]; 5 mg of dTBP2 from day 41) was “continuously increased”. The joint thickness ([2]; 25 mg of dTBP2 from day 41) was “reduced”, the arthritis clinical score ([2]; 25 mg of dTBP2 from day 41, vs vehicle alone or 5 mg) was “getting lower” and the “HRF binding affinity (rank order)” value [3] was “p2, m6>m7>m3>m2>fm5>M1>m4”. The “IL-4 mRNA level” value [4, 6] was “significantly decreased”, the “IL-13 mRNA level” value [4, 6] was “significantly decreased” and the “atopic symptoms including thick stratum corneum (H&E, skin thickness)” value [4, 6] was “improved”. The histamine level [4, 6] was “lower”, the “level of Th17A” value [4, 6] was “lowered” and the “lymph node weight and size (lymph node assay)” value [4, 6] was “smaller in both weight and size than that of the PBS treated group”. The “infiltration of mast cells (toluidine blue)” value ([4]; dTBP2 25 mg/kg s.c., protopic ointment 100 mg/mouse, vs positive control) was “significantly reduced”, the “atopic symptoms as points (atopic index: erythema, drying, excoriation, edema, erosion)” value ([4]; dTBP2 subcutaneous 25 mg/kg, protopic ointment 100 mg/mouse, vs control) was “minor” and the “degree of atopy, visually confirmed” value ([4]; dTBP2 subcutaneous 25 mg/kg, protopic ointment skin application 100 mg/mouse, vs control) was “lesser degree of atopy than the control group”. For the same substance, the joint thickness ([5]; 5 mg of dTBP2) was “continuously increased until day 41 and rapidly increased from day 41 to day 46”, the “development of rheumatoid arthritis” value ([5]; 25 mg of dTBP2, three times a week, vs vehicle alone or 5 mg) was “inhibited more significantly” and the joint thickness ([5]; 25 mg of dTBP2) was “almost as same as that of the normal until day 46”. For the same substance, the “inhibition of incidence rate” value ([5]; day 31, 25 mg of dTBP2, vs vehicle alone or 5 mg) was “at least 50%” and the “inhibition of incidence rate” value ([5]; day 46, 25 mg of dTBP2, vs vehicle alone or 5 mg) was “at least 70%”.
